In PMC7247319, “The mitochondria-targeted peptide SS-31 binds lipid bilayers and modulates surface electrostatics as a key component of its mechanism of action” (The Journal of Biological Chemistry, 2020):
Where a SMILES comes first, the peptide text is derived from it. [ ]: non-standard residue; d: D form. Dmt = Cc1cc(O)cc(C)c1C[C@H](N)C(=O)O

System: LUVs with 20% TOCL
Assay: CG-5N assay of Ca2+ accumulation at model membrane interface
Conditions: peptide titrated into LUVs with 20% TOCL prebound with Ca2+
Description: Figure 7. SS peptide effects on Ca^2+-membrane interactions and mitochondrial cation stress. A, profiles of surface potential decay (top) and ion distribution (bottom) based on GCS theory in the presence or absence of SS-31 (see supporting Results H for model description). B, effect of SS peptides on Ca^2+ accumulation at model membrane interfaces. […] C and D, effect of SS peptides on mitochondrial Ca^2+ uptake. C, time courses of TMRM or CG-5N emission in mitochondrial suspensions with ETH-129 in the absence (top) or presence (bottom) of SS-31 following the addition of NADH (black arrowheads) and CaCl2 (open arrowheads). See Fig. S18A for experimental details. […] Spectral deconvolution yielded the indicated components (see Fig. S19, A and B), which were used to quantify the area ratios of L2/iso in F (values shown are means ± S.D. (error bars) (n = 3). G, respirometry analysis. Mitochondria (1 mg ml^−1) were treated in the absence or presence of SS-31 (54.4 μM) or CaCl2 (1 mM) as indicated and measured for state 2 respiration (n = 10–12 each).
First, we measured the effects of SS peptides on the accumulation of Ca^2+ in the interfacial region of model membranes. […] We reasoned that the binding of Ca^2+ to the headgroup region of anionic lipid bilayers would reduce the bulk Ca^2+ detected by the CG-5N probe, providing a direct readout of Ca^2+ accumulation at the membrane interface. […]

Cc1cc(O)cc(C)c1C[C@H](NC(=O)[C@H](N)CCCNC(=N)N)C(=O)N[C@@H](CCCCN)C(=O)N[C@@H](Cc1ccccc1)C(N)=O [SS-31, D-Arg-2′6′-dimethyl-Tyr-Lys-Phe-NH2] (H-[dR][Dmt]KF-NH2)
release of Ca2+ from membrane interface (CG-5N response): released Ca^2+ from the membrane interface in a dose-dependent manner
